Results published in patent US9187539B2, “Compositions having antiangiogenic activity and uses thereof” (The Johns Hopkins University, priority 2005, dated 2015).

Legend:
[1] = tested on: human umbilical vein endothelial cells (HUVECs); assay: HUVEC proliferation assay (WST-1), 2- and 4-day, 5,000 cells per well; type: cell-based; conditions: for concentration-response profile in words: 2- and/or 4-day assay
Protocol: The effect of the various peptides on cell proliferation was assayed, by administering the peptides to human umbilical vein endothelial cells (HUVECs) in culture. 45 peptides belonging to four distinct families of proteins including the thrombospondin-1 containing proteins, the C-X-C chemokines, collagen derived peptides and peptides from tissue inhibitors of metalloproteinases were tested. The potency of each of the peptides was tested using the proliferation assay at 2 days and 4 days following administration of the peptides and a similar assay using a different cell density at 3 days. In the four-day experiments, the cell medium was changed after the second day of incubation and the peptide was replaced at the initial concentration together with the medium. TNP-470 is an antiangiogenic compound that was used as a positive control for assessing anti-angiogenic efficacy. The activity of each polypeptide was, therefore, expressed as a percentage of TNP-470 activity, i.e., the optical density obtained experimentally is scaled such that the negative control is 0% and the positive control is 100% as explained below (FIG. 4). Each plate included a well having HUVEC cells that received 0.1 μg/ml TNP-470. For example, a peptide having the same effect on endothelial cell proliferation would have 100% of the activity of TNP-470. Note that activity could exceed 100%. In this assay, the effects of the predicted anti-angiogenic fragments on the ability of HUVECs to proliferate was characterized. […] A commonly used methodology to test for proliferation is to monitor the viability and metabolic activity of endothelial cells, in the presence of the anti-angiogenic fragments at different concentrations and various time steps. The cell proliferation reagent WST-1 was used as a substrate/assay to measure the metabolic activity of viable cells. WST-1 is a colorimetric, non-radioactive assay and can be performed in a microplate. It is suitable for measuring cell proliferation, cell viability or cytotoxicity. The assay is based on the reduction a red tetrazolium salt, WST-1, by viable, metabolically active, cells to form the yellow formazan crystals soluble in the cell medium. […] The cells are cultured described above. Once cells have reached 80% confluence they are trypsinized and resuspended in EGM-2. The cell density is estimated using a hemocytometer. All of the endothelial cells used were from passage 4 to passage 8. The proliferation assay involved two steps. During the first step the cells, approximately 5,000 cells per well for a 96-well plate, were seeded without any extracellular matrix substrate on the wells overnight (8 hours). The initial cell culture medium was removed using a multichannel pipetor and the candidate peptides were applied. A logarithmic scale of four different concentrations of 0.01 μg/ml, 0.1 μg/ml, 1 μg/ml and 10 μg/ml of each peptide was used. Each of the concentrations was tested in quadruplicate. The viability of the cells was challenged at 2 and 4 days upon the application of the peptide. As a positive control for decreased viability, 0.1 μg/ml of TNP-470 (O-(chloro-acetyl-carbamoyl) fumagillol, a synthetic analogue of fumagillin; TNP-470 was provided by NCI, was provided along with the medium, and as a negative control for normal viability, the cells were cultured without the addition of any agent. The cells were then incubated with 10 μl per well of the red WST-1 reagent for approximately 2 to 4 hours. During this incubation period, viable cells converted, in their mitochondria, the red WST-1 to the yellow formazan crystals which dissolve in the medium. The second step of the assay involved the quantification of the changes in proliferation which was performed by measuring the change in color after lysing the cells. The samples were read using the ELISA plate reader Victor3 V (Perkin Elmer) at a wavelength of […]. The amount of color produced is directly proportional to the number of viable cells. […]

[2] = tested on: human umbilical vein endothelial cells (HUVECs); assay: HUVEC proliferation assay (WST-1), 3-day, 2,000 cells per well; type: cell-based; conditions: 3-day assay; for anti-proliferative activity (maximum or stated level), scaled so that TNP-470 = 100%: 0.01-30 μg/ml; for anti-proliferative activity in words at high peptide concentration: high/highest applied concentration (30 μg/ml where stated); for anti-proliferative activity in words: overall
Protocol: In addition to the 2 and 4 day proliferation experiment where 5,000 cells per well were seeded, the effects of the peptides on the proliferating ability of HUVECs were also studied using cells seeded at a density of 2,000 cells per well. This lower cell seeding density allowed the experiment to be extend for an additional day without changing the cell medium. The effects of the peptides when applied to the cells for 3 consecutive days is also reported herein. The proliferation assay again involved two steps. During the first step 2,000 cells per well for a 96-well plate were seeded without any extracellular matrix substrate on the wells overnight (8 hours). The initial cell culture medium was removed using a multichannel pipetor. To synchronize the cells, the cells were serum starved for 4 hours and the candidate peptides were applied. During serum starvation the cell culture medium was changed from a “full” medium to the “basal” medium, which contained no growth factors or serum. Serum starvation for 4 hours had no effect on the proliferation of the cells. For this assay, the logarithmic scale of four different concentrations of 0.01 μg/ml, 0.1 μg/ml, 1 μg/ml and 10 μg/ml of peptide was used. In addition, a larger concentration of 30 μg/ml peptide was also applied. Each of the concentrations was again tested in quadruplicate. After the third day of peptide application the WST-1 dye was applied for approximately 2 to 4 hours (usually after 3 hours the color saturates). The proliferation was later tested on the ELISA plate reader as described for the 2 and 4 day assay. Note that the 2- and 4-day and the 3-day protocols differed in that 5,000 cells/well versus 2,000 cells/well seeded, respectively.

[3] = 4 days of peptide application, 0.01-10 μg/ml
[4] = 2- and 4-day assay, day not specified or constant throughout the four days
[5] = 2- and 4-day assay, day not specified
[6] = 2 days of peptide application, 0.01-10 μg/ml
[7] = 10 μg/ml peptide, 2- and 4-day assay

GPWGDCSRTCGGGVQFSSR [SEQ ID NO: 7, ADAMTS-4 CAH72146.1: 527-545]
peptide concentration at which maximum activity was observed ([1]; 4 days): 10 µg/mL
anti-proliferative activity (maximum or stated level), scaled so that TNP-470 = 100% [1, 3]: 35%

TSWSPCSASCGGGHYQRTR [SEQ ID NO: 62, Semaphorin 5B AAQ88491.1: 916-934]
anti-proliferative activity (maximum or stated level), scaled so that TNP-470 = 100% [1, 4]: 10%

QPWGTCSESCGKGTQTRAR [SEQ ID NO: 44, Fibulin-6 CAC37630.1: 1688-1706]
concentration-response profile in words [1]: biphasic behavior
peptide concentration at which maximum activity was observed ([1]; 4 days): 0.01 µg/mL
anti-proliferative activity (maximum or stated level), scaled so that TNP-470 = 100% [1, 3]: ~40%
concentration-response profile in words [2]: activity increased with increasing peptide concentration

GPWEDCSVSCGGGEQLRSR [SEQ ID NO: 63, SCO-spondin XP_379967.2: 3781-3799]
anti-proliferative activity (maximum or stated level), scaled so that TNP-470 = 100% [1, 4]: ~15%
anti-proliferative activity in words ([1]; 2- and 4-day assay, overall): low anti-proliferative activity
anti-proliferative activity (maximum or stated level), scaled so that TNP-470 = 100% [2]: 25%

WTRCSSSCGRGVSVRSR [SEQ ID NO: 66, THSD6 AAH40620.1: 44-60]
peptide concentration at which maximum activity was observed [1, 5]: 0.1 µg/mL
concentration-response profile in words [1]: biphasic
anti-proliferative activity (maximum or stated level), scaled so that TNP-470 = 100% [1, 6]: approximately 20%
concentration-response profile in words [2]: biphasic
anti-proliferative activity (maximum or stated level), scaled so that TNP-470 = 100% [2]: ~30%

TEWTACSKSCGMGFSTRV [SEQ ID NO: 46, NOVH AAL92490.1: 211-228]
peptide concentration at which maximum activity was observed [1, 5]: 0.01 µg/mL
anti-proliferative activity (maximum or stated level), scaled so that TNP-470 = 100% [1, 4]: 20%
concentration-response profile in words [2]: monotonic increase with concentration

SAWRACSVTCGKGIQKRSR [SEQ ID NO: 43, Fibulin-6 CAC37630.1: 1574-1592]
anti-proliferative activity (maximum or stated level), scaled so that TNP-470 = 100% [1, 4]: 30%
concentration-response profile in words [2]: peptide activity increasing as concentration increased

QDVFNKDGKVILLSPQAICLPKEK [SEQ ID NO: 158, reference compound]
anti-proliferative activity in words ([1]; 2- and 4-day assay, overall): not statistically significant

SKWSECSRTCGGGVKFQER [SEQ ID NO: 29, ADAMTS-18 Q8TE60: 596-614]
anti-proliferative activity, TNP-470 = 100% ([1]; 1 μg/ml peptide, 2 days): 30%
anti-proliferative activity in words at 10 μg/ml [1, 7]: reduced
concentration-response profile in words [1]: biphasic response
anti-proliferative activity in words at high peptide concentration [2]: significantly increased

SPWSPCSGNCSTGKQQRTR [SEQ ID NO: 65, THSD3 AAH33140.1: 280-298]
anti-proliferative activity in words ([1]; 2- and 4-day assay, overall): did not effect endothelial cell proliferation
anti-proliferative activity in words [2]: did not effect endothelial cell proliferation

GPWGECSRTCGGGVQFSHR [SEQ ID NO: 14, ADAMTS-8 Q9UP79: 534-552]
anti-proliferative activity in words at 10 μg/ml [1, 7]: reduced
concentration-response profile in words [1]: biphasic response
peptide concentration at which maximum activity was observed ([1]; 2 days): 1 µg/mL
anti-proliferative activity (maximum or stated level), scaled so that TNP-470 = 100% [1, 6]: 35%
peptide concentration at which maximum activity was observed ([1]; 4 days): 1 µg/mL
anti-proliferative activity (maximum or stated level), scaled so that TNP-470 = 100% [1, 3]: 30%
concentration-response profile in words [2]: biphasic response

TQWTSCSKTCNSGTQSRHR [SEQ ID NO: 38, C6 AAB59433.1: 30-48]
anti-proliferative activity (maximum or stated level), scaled so that TNP-470 = 100% [1, 3]: 35%
concentration-response profile in words [2]: biphasic
anti-proliferative activity (maximum or stated level), scaled so that TNP-470 = 100% [2]: 25%

TKWTPCSRTCGMGISNRV [SEQ ID NO: 76, WISP-3 CAB16556.1: 191-208]
anti-proliferative activity in words at 0.01 μg/ml ([1]; 0.01 μg/ml peptide, 2- and 4-day assay): shows potency
concentration-response profile in words [1]: biphasic
concentration-response profile in words [2]: increased significantly as the concentration increased

SPWSQCSVRCGRGQRSRQVR [SEQ ID NO: 69, TSRC1 AAH27478.1: 140-159]
concentration-response profile in words [1]: biphasic
anti-proliferative activity in words ([1]; 2 days of peptide application): minimal activity
peptide concentration at which maximum activity was observed ([1]; 4 days): 0.1 µg/mL
anti-proliferative activity in words ([1]; 4 days of peptide application): prominent activity
anti-proliferative activity (maximum or stated level), scaled so that TNP-470 = 100% [1, 3]: 25%
anti-proliferative activity in words at high peptide concentration [2]: activity increased

WDECSATCGMGMKKRHR [SEQ ID NO: 72, VSGP/F-spondin BAB18461.1: 567-583]
anti-proliferative activity in words ([1]; 2 days of peptide application): not statistically significant
anti-proliferative activity (maximum or stated level), scaled so that TNP-470 = 100% [1, 3]: 10%
anti-proliferative activity in words [2]: exhibited activity

DGRELCLDPKENWVQRVVEKFLK [SEQ ID NO: 110, IL-8/CXCL8 AAP35730.1: 72-94]
anti-proliferative activity, TNP-470 = 100% [1, 7]: 20%
anti-proliferative activity in words at high peptide concentration [2]: higher

ECLWTDMLSNFGYPGYQSKHYACI [SEQ ID NO: 155, TIMP 3 AAA21815.1: 148-171]
anti-proliferative activity (maximum or stated level), scaled so that TNP-470 = 100% [1, 4]: 30%
anti-proliferative activity (maximum or stated level), scaled so that TNP-470 = 100% [1, 6]: 30%

DGRKICLDPDAPRIKKIVQKKL [SEQ ID NO: 114, THBG-β/CXCL7 AAB46877.1: 100-121]
anti-proliferative activity, TNP-470 = 100% [1, 7]: 15%

SQWSPCSRTCGGGVSFRER [SEQ ID NO: 47, Papilin NP_775733.2: 33-51]
anti-proliferative activity in words ([1]; 2- and 4-day assay, overall): minimal anti-proliferative activity

GPWAPCSASCGGGSQSRS [SEQ ID NO: 48, Papilin NP_775733.2: 342-359]
anti-proliferative activity (maximum or stated level), scaled so that TNP-470 = 100% [1, 4]: 30%

SPWTKCSATCGGGHYMRTR [SEQ ID NO: 61, Semaphorin 5A NP_003957.1: 848-866]
anti-proliferative activity in words ([1]; 2- and 4-day assay, overall): no anti-proliferative activity

KCHGHGVCNSNKN [SEQ ID NO: 1, ADAM-9 Q13443: 649-661]
anti-proliferative activity (maximum or stated level), scaled so that TNP-470 = 100% [1, 4]: ~20%

LCMTKSDCYQPAWYIHEGFYNLSG [SEQ ID NO: 159, reference compound]
anti-proliferative activity in words ([1]; 2- and 4-day assay, overall): not statistically significant
